pIC50: −log10 of the molar value. Read-outs that look alike come from different tables or passages of the source. One block for each molecule: values may come before it.
Experiments:
[1] = test system: DU 145 (human prostate cancer); test: Cytotoxicity assay (CellTiter-Glo), DU 145; type: cell-based; details: for pIC50: CellTiter-Glo, read-out: Absolute IC50
Description: (§1) Determination of the Half Maximal Inhibition Concentration IC50: • 1.

[2] = test system: HeLa (human cervical cancer); test: Cytotoxicity assay (CellTiter-Glo), HeLa; type: cell-based
Description: as §1

[3] = test system: K-562 (human chronic myelogenous leukemia); test: Cytotoxicity assay (CellTiter-Glo), K-562; type: cell-based; details: for pIC50: CellTiter-Glo, read-out: Absolute IC50
Description: as §1

[4] = test system: GRANTA-519 (human B Cell lymphoma); test: Cytotoxicity assay (CellTiter-Glo), GRANTA-519; details: for pIC50: read-out: Absolute IC50
Description: (§3) The homogeneous assay procedure involves adding a single reagent (CellTiter-Glo® Reagent) directly to cells cultured in serum-supplemented medium. The homogeneous “add-mix-measure” format results in cell lysis and generation of a luminescent signal proportional to the amount of ATP present. The amount of ATP is directly proportional to the number of cells present in culture. The assay generates a luminescent signal, produced by the luciferase reaction.
(§4) Determination of the Half Maximal Inhibition Concentration IC50: • 1. Harvest cells during the logarithmic growth period and count cell number using Count-star. • 2. […] Add 90 μL cell suspensions to two 96-well plates (plates A and B) with the final cell density of 4×10^3 cells/well. (cell concentration is adjusted according to the data base or density optimization assay.)
(§5) Next day: For the Plates of T0 Reading: • 1) Add 10 μL culture medium to each well of plate A for T0 reading. • 2) Equilibrate the plate and its content at RT for approximately 30 min. • 3) Add 50 μL CellTiter-Glo (CTG) reagent to each well. • 4) Mix content for 5 min on an orbital shaker to induce cell lysis. • 5) Allow the plate to incubate at RT for 20 min to stabilize luminescent signal. Note: Uneven luminescent signal within standard plates can be caused by temperature gradients, uneven seeding of cells or edge effects in multiwell plates. • 6) Record luminescence (T0) using EnVision Multi Label Reader.
(§6) Note: Uneven luminescent signal within standard plates can be caused by temperature gradients, uneven seeding of cells or edge effects in multiwall plates. • 9) Record luminescence.
(§7) In order to calculate absolute IC50 (EC50), a dose-response curve was fitted using nonlinear regression model with a sigmoidal dose response. The formula for calculating surviving rate is shown below and the absolute IC50 (EC50) was calculated according to the dose-response curve generated by GraphPad Prism 5.0.
(§8) The surviving rate (%)=(LumTest article−LumMedium control)/(LumNon-treated−LumMedium control)×100%.

[5] = target: ABL1 (Homo sapiens, UniProt P00519); test: Kinase inhibition, ABL1; type: biochemical; details: 10 μM ATP; read-out: Compound IC50 (M), ABL1
Procedure: (§2) The compounds in Table 1 were tested for the ability to inhibit the kinase activity of the listed protein kinases.

[6] = target: T1, ARK5/NUAK1 (Homo sapiens, UniProt O60285); test: Kinase inhibition, ARK5/NUAK1; type: biochemical; details: 10 μM ATP; values <1 nM estimated from best curve fitting; read-out: Compound IC50 (M), ARK5/NUAK1
T1 sequence (O60285 1-661): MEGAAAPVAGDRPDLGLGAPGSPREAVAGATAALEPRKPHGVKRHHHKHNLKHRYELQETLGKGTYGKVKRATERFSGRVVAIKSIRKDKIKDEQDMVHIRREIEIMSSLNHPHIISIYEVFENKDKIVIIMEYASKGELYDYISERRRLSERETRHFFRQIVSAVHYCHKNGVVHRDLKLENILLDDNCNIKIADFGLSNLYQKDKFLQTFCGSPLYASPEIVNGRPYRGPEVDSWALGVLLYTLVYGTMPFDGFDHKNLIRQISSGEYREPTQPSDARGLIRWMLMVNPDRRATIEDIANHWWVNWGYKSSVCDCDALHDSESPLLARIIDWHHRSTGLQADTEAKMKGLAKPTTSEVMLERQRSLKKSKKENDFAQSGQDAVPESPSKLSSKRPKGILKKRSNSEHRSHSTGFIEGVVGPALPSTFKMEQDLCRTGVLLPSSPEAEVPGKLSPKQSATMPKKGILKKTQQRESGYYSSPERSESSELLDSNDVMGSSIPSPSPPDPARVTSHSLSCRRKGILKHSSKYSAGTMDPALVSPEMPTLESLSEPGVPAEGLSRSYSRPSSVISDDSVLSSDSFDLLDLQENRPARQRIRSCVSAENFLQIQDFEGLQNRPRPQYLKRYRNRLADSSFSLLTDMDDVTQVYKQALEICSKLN
Procedure: as §2

[7] = target: CDK4/cyclin D1 (Homo sapiens, UniProt P11802); test: Kinase inhibition, CDK4/cyclin D1; type: biochemical; details: 10 μM ATP; read-out: Compound IC50 (M), CDK4/cyclin D1
Procedure: as §2

[8] = target: CDK4/cyclin D3 (Homo sapiens, UniProt P11802); test: Kinase inhibition, CDK4/cyclin D3; type: biochemical; details: 10 μM ATP; read-out: Compound IC50 (M), CDK4/cyclin D3
Procedure: as §2

[9] = target: CDK6/cyclin D1 (Homo sapiens, UniProt Q00534); test: Kinase inhibition, CDK6/cyclin D1; type: biochemical; details: 10 μM ATP; values <1 nM estimated from best curve fitting; read-out: Compound IC50 (M), CDK6/cyclin D1
Procedure: as §2

[10] = target: CDK6/cyclin D3 (Homo sapiens, UniProt Q00534); test: Kinase inhibition, CDK6/cyclin D3; type: biochemical; details: 10 μM ATP; read-out: Compound IC50 (M), CDK6/cyclin D3
Procedure: as §2

[11] = target: CDK9/cyclin K (Homo sapiens, UniProt P50750); test: Kinase inhibition, CDK9/cyclin K; type: biochemical; details: 10 μM ATP; read-out: Compound IC50 (M), CDK9/cyclin K
Procedure: as §2

[12] = target: FGFR1 (Homo sapiens, UniProt P11362); test: Kinase inhibition, FGFR1; type: biochemical; details: 10 μM ATP; read-out: Compound IC50 (M), FGFR1
Procedure: as §2

[13] = target: T2, FLT3 (Homo sapiens, UniProt P36888); test: Kinase inhibition, FLT3; type: biochemical; details: 10 μM ATP; values <1 nM estimated from best curve fitting; read-out: Compound IC50 (M), FLT3
T2 sequence (P36888 27-993): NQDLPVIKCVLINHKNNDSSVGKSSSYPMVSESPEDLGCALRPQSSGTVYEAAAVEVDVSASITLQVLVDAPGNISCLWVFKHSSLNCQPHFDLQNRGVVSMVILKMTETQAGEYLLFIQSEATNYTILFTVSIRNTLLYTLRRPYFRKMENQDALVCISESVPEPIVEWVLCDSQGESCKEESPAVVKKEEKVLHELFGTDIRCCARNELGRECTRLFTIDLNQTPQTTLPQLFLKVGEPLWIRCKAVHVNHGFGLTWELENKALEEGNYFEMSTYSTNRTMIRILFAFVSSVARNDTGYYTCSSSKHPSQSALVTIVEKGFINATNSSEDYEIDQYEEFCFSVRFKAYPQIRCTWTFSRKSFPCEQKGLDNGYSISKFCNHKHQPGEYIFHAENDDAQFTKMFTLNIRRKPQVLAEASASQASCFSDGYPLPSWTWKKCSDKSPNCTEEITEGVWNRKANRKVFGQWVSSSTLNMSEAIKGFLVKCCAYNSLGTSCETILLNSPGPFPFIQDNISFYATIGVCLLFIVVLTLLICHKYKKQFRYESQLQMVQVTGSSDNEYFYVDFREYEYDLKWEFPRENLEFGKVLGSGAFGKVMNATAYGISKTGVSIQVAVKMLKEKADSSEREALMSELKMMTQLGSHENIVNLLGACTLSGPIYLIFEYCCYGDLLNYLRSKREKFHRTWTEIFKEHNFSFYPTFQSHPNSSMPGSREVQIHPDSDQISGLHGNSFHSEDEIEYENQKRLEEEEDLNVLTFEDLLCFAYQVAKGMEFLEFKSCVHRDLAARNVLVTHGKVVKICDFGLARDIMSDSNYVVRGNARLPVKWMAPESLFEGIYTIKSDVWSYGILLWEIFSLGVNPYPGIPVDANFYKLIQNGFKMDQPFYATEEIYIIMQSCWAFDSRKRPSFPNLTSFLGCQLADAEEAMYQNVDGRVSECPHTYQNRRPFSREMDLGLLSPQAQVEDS
Procedure: as §2

[14] = target: FLT4/VEGFR3 (Homo sapiens, UniProt P35916); test: Kinase inhibition, FLT4/VEGFR3; type: biochemical; details: 10 μM ATP; read-out: Compound IC50 (M), FLT4/VEGFR3
Procedure: The compounds in Table 1 were tested for the ability to inhibit the kinase activity of the listed protein kinases. […]

[15] = target: FYN (Homo sapiens, UniProt P06241); test: Kinase inhibition, FYN; type: biochemical; details: 10 μM ATP; read-out: Compound IC50 (M), FYN
Procedure: as §2

[16] = target: PDGFRb (Homo sapiens, UniProt P09619); test: Kinase inhibition, PDGFRb; type: biochemical; details: 10 μM ATP; read-out: Compound IC50 (M), PDGFRb
Procedure: as §2

[17] = target: T3, PKG2/PRKG2 (Homo sapiens, UniProt Q13237); test: Kinase inhibition, PKG2/PRKG2; type: biochemical; details: 10 μM ATP; read-out: Compound IC50 (M), PKG2/PRKG2
T3 sequence (Q13237 1-762): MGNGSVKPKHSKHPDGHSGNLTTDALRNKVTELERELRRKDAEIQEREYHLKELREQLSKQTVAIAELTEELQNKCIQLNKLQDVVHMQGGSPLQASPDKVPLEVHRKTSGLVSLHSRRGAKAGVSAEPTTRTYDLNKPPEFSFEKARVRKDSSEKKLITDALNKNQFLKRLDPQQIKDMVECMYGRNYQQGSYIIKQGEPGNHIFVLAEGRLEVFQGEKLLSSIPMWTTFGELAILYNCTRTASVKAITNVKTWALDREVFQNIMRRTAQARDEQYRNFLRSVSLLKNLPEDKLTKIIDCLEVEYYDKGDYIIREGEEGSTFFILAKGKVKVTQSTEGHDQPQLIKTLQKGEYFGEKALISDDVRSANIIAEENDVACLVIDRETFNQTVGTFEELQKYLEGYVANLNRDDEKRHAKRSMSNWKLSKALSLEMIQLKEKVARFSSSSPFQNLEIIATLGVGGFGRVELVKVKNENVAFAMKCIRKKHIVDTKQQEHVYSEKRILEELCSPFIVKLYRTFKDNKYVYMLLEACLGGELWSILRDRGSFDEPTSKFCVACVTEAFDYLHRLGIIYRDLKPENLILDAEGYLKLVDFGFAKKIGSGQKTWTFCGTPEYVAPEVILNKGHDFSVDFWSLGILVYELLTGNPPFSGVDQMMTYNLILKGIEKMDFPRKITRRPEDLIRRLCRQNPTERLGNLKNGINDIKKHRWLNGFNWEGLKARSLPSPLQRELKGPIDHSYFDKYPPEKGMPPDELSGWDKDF
Procedure: as §2

[18] = target: RET (Homo sapiens, UniProt P07949); test: Kinase inhibition, RET; type: biochemical; details: 10 μM ATP; read-out: Compound IC50 (M), RET
Procedure: as §2

[19] = test system: GRANTA-519 (human B Cell lymphoma)
Description: as §3, §4, §5, §6, §7, §8

Sequence of FLT4/VEGFR3 (P35916 25-1363): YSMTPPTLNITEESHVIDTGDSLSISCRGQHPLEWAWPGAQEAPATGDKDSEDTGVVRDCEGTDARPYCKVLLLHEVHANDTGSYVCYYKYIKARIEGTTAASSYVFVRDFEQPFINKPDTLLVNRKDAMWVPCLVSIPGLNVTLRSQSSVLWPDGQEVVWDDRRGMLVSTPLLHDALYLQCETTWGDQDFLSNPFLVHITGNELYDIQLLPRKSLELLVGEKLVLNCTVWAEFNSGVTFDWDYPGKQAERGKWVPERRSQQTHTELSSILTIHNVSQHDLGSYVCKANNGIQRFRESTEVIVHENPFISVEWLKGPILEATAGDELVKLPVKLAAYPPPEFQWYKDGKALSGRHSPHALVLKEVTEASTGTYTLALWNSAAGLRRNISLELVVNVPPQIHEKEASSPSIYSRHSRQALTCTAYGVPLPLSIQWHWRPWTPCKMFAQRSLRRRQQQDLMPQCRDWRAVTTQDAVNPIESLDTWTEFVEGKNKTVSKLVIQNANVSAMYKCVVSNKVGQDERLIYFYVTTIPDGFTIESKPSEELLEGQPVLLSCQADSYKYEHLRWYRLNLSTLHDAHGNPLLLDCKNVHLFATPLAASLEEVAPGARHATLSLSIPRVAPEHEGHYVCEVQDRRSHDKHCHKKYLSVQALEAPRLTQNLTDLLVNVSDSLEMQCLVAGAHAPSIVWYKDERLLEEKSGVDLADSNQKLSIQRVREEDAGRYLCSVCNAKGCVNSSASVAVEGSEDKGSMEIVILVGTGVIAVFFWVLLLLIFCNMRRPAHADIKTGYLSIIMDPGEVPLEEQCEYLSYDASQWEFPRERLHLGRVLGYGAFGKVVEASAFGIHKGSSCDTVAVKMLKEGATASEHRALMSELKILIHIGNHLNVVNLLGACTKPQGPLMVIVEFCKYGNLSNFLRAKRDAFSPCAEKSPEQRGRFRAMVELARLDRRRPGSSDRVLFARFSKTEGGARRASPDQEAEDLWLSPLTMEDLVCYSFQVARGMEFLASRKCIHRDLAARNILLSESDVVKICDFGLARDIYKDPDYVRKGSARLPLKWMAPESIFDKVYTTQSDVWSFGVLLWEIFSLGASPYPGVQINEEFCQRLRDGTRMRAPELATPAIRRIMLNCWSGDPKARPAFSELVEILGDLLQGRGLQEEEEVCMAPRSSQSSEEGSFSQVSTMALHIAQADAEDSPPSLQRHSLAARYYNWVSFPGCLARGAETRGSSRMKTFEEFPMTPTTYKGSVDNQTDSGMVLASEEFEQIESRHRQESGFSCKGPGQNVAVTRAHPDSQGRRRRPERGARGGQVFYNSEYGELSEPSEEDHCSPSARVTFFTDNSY
Sequence of CDK4/cyclin D3 (P11802 whole entry): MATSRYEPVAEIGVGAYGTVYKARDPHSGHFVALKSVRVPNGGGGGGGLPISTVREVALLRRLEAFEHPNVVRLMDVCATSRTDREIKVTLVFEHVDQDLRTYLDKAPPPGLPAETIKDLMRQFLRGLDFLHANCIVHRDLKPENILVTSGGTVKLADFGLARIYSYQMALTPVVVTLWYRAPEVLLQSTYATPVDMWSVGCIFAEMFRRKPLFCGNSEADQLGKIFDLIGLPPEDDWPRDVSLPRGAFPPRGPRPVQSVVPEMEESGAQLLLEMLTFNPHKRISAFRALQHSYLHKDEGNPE
Sequence of CDK4/cyclin D3 (P30281 whole entry partner): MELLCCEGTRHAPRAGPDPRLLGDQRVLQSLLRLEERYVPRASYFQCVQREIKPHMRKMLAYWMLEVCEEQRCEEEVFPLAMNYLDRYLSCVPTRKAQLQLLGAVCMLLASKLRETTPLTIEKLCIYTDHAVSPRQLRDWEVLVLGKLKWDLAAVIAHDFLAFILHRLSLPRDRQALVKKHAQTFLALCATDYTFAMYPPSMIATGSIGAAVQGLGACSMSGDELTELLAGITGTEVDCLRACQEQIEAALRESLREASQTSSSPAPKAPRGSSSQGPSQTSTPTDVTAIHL
Sequence of CDK4/cyclin D1 (P11802 whole entry): as the sequence (P11802 whole entry) above
Sequence of CDK4/cyclin D1 (P24385 whole entry partner): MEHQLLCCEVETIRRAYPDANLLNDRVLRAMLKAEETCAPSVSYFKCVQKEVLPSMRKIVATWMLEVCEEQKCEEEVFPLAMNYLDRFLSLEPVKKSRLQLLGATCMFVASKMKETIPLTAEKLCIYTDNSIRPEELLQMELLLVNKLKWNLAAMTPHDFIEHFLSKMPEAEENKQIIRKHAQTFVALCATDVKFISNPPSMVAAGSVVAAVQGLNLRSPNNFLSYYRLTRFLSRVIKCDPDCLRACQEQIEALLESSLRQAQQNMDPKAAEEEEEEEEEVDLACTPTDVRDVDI
Sequence of FGFR1 (P11362 22-822): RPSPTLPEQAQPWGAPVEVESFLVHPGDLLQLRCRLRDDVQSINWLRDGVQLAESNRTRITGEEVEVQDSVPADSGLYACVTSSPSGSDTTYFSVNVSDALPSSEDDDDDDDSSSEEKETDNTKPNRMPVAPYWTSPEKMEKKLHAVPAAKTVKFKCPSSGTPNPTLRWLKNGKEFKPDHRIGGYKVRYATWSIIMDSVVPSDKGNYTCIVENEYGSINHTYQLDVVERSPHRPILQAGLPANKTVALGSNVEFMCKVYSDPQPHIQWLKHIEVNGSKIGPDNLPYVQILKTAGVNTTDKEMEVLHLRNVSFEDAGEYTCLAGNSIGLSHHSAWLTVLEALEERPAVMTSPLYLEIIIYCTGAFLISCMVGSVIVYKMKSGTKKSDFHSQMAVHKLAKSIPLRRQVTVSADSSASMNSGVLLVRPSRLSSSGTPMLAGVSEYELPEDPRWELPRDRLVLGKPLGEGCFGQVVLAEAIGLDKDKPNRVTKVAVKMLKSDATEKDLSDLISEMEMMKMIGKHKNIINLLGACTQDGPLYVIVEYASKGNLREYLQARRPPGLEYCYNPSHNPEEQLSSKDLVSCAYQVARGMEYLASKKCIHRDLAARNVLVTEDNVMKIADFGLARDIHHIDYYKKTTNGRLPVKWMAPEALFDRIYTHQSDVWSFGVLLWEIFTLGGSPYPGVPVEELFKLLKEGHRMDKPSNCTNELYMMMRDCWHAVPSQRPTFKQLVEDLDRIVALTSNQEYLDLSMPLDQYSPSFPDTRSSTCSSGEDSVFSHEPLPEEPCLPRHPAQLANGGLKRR
Sequence of CDK9/cyclin K (P50750 whole entry): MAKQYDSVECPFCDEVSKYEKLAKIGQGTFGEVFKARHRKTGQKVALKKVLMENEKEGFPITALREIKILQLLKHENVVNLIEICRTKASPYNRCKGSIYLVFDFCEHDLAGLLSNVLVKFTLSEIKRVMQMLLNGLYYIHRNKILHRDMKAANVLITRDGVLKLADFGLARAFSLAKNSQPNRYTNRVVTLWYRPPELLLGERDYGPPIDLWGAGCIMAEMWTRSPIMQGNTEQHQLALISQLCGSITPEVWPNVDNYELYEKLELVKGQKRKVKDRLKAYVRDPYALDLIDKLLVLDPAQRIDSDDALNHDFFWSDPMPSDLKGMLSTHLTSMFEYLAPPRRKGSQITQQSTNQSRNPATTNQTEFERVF
Sequence of CDK9/cyclin K (O75909 whole entry partner): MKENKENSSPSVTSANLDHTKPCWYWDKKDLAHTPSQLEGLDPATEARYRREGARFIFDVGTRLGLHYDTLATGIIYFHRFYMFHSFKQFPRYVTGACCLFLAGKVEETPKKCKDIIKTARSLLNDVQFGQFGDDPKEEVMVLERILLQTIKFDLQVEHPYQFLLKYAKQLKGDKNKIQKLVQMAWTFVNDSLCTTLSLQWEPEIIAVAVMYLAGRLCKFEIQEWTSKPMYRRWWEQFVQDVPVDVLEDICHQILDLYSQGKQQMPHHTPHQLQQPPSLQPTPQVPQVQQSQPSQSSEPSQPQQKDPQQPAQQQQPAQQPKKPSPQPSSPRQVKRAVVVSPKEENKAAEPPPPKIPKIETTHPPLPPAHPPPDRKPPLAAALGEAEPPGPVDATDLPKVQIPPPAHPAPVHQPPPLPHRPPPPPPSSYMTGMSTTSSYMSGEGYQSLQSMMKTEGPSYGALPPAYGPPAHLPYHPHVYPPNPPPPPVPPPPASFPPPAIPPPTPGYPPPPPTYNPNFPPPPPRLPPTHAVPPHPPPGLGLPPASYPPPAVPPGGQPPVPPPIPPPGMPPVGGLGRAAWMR
Sequence of FYN (P06241 whole entry): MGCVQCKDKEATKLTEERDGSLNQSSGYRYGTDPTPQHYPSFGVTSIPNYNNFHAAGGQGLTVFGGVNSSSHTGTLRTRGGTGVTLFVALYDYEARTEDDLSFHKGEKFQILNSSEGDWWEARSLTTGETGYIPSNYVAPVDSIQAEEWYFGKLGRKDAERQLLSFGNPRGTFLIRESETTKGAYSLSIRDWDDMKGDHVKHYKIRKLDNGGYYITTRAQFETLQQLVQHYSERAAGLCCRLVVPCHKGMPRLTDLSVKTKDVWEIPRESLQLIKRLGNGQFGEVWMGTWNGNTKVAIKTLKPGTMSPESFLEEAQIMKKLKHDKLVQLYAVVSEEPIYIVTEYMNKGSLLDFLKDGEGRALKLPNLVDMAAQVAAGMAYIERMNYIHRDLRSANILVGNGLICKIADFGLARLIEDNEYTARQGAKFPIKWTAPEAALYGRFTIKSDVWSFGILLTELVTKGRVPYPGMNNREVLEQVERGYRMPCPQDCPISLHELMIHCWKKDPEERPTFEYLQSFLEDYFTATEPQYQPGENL
Sequence of CDK6/cyclin D1 (Q00534 whole entry): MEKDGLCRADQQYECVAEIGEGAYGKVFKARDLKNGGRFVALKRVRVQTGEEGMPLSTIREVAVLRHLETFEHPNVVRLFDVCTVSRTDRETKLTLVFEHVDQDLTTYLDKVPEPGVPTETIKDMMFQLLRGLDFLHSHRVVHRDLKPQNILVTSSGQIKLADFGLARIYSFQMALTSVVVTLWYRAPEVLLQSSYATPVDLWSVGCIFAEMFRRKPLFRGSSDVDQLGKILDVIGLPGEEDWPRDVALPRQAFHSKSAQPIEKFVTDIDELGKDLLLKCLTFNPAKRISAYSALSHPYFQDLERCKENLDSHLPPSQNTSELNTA
Sequence of CDK6/cyclin D1 (P24385 whole entry partner): as the sequence (P24385 whole entry partner) above

Structure (SMILES): N.N.[Cl][Pt][Cl] [Cisplatin, reference compound]
pIC50 ([1]; DU 145, 72 h): 6.02
% inhibition at top conc. ([1]; DU 145, 72 h, top working concentration 100 μM): 95.44%
% inhibition at top conc. ([2]; HeLa, 72 h, top working concentration 100 μM): 99.18%
pIC50 ([3]; K-562, 72 h): 5.42
% inhibition at top conc. ([3]; K-562, 72 h, top working concentration 100 μM): 98.74%
% inhibition at top conc. ([4]; GRANTA-519, 72 h, top working concentration 100 μM): 77.25%
pIC50 ([4]; GRANTA-519, 72 h, CellTiter-Glo): 5.77

IC50 [5]: 2.01e-08 M
IC50 [6]: 2.28e-09 M
IC50 [7]: < 1e-09 M
IC50 [8]: 2.77e-09 M
IC50 [9]: < 1e-09 M
IC50 [10]: 2.97e-09 M
IC50 [11]: 8.06e-09 M
IC50 [12]: 3.09e-08 M
IC50 [13]: 4.25e-09 M
IC50 [14]: 6.97e-09 M
IC50 [15]: 3.29e-08 M
IC50 [16]: 6.12e-09 M
IC50 [17]: > 0.0001 M
IC50 [18]: 8.13e-09 M
Structure (SMILES): N#Cc1cc2cnc(Nc3ccc(N4CCNCC4)cc3)nc2n(C2CCCC2)c1=O [ON 1232580, 8-Cyclopentyl-7-oxo-2-(4-piperazin-1-yl-phenylamino)-7,8-dihydro-pyrido[2,3-d]pyrimidine-6-carbonitrile]
Cytotoxicity, result in words ([1]; DU 145 cells): potent inhibitor
pIC50 ([1]; Homo sapiens, DU 145, 72 h): 6.03
inhibition at 100 µM ([1]; Homo sapiens, DU 145, 72 h, top working concentration 100 μM, read-out: % inhibition at top conc.): 99.9%
Cytotoxicity, result in words ([2]; HeLa cells): potent inhibitor
pIC50 ([2]; Homo sapiens, HeLa, 72 h, CellTiter-Glo, read-out: Absolute IC50): 5.82
inhibition at 100 µM ([2]; Homo sapiens, HeLa, 72 h, top working concentration 100 μM, read-out: % inhibition at top conc.): 100%
pIC50 ([3]; Homo sapiens, K562, K-562, 72 h): 5.92
inhibition at 100 µM ([3]; Homo sapiens, K562, K-562, 72 h, top working concentration 100 μM, read-out: % inhibition at top conc.): 100%
Cytotoxicity, result in words ([3]; K-562 cells): potent inhibitor
Cytotoxicity, result in words [19]: potent killer
inhibition at 100 µM ([4]; Homo sapiens, Granta-519, 72 h, read-out: % inhibition at top conc.): 100%
pIC50 ([4]; Homo sapiens, Granta-519, 72 h): 6.40

IC50 [6]: 1.91e-06 M
IC50 [14]: 1.72e-05 M
Structure (SMILES): CC(=O)c1c(C)c2cnc(Nc3ccc(N4CCNCC4)cn3)nc2n(C2CCCC2)c1=O [Palbociclib, palbociclib, reference compound]
